Measurements as given in the supplement of paper PMC10307832.

Compound: NC(=O)[C@@H](CCC(F)(F)F)N(Cc1ccc(-c2ncon2)cc1F)S(=O)(=O)c1ccc(Cl)cc1 [Avagacestat] + CS(=O)(=O)N1CCN(Cc2cc3nc(-c4cccc5[nH]ncc45)nc(N4CCOCC4)c3s2)CC1 [Pictilisib] (partner 1 µM)
Assay: relative viability (nuclei count vs DMSO), 5 days (fraction); higher = more cells survive
How it was run: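 Lung cancer cell lines, seeded in 1536-well plates, were treated the following day by pin tool with a single drug or with five library-drug doses (not always all listed) in √10 steps on top of a fixed anchor-drug dose. Cells were fixed and nuclei stained in one step after 5 days, and nuclei were counted. Relative viability is the nuclei count for treated wells divided by that for vehicle wells, reported as medians of duplicate plates.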

Cell Line	relative viability (first compound 0.08 µM)	relative viability (first compound 0.253 µM)	relative viability (first compound 0.8 µM)	relative viability (first compound 2.53 µM)	relative viability (first compound 8 µM)
201T	0.737	0.7	0.664	0.691	0.661
A549	0.795	0.632	0.458	0.462	0.403
A-427	0.72	0.832	0.745	0.763	0.817
ABC-1	1	0.753	0.861	0.679	0.711
BEN	0.679	0.621	0.58	0.529	0.534
CAL-12T	0.734	0.47	0.719	0.624	0.48
COR-L23	1.07	0.878	0.774	0.653	0.397
COR-L 105	0.38	0.447	0.326	0.319	0.419
Calu-6	1.3	1.03	1.18	0.913	1.02
ChaGo-K-1	0.701	0.675	0.924	1.09	0.801
EBC-1	0.429	0.331	0.413	0.362	0.327
EKVX	0.443	0.528	0.523	0.393	0.435
EMC-BAC-2	0.567	0.554	0.564	0.489	0.517
EPLC-272H	0.325	0.273	0.346	0.371	0.241
H3255	0.488	0.544	0.494	0.481	0.474
HARA	0.368	0.517	0.417	0.342	0.373
HCC-15	0.837	0.801	0.802	0.808	0.611
HCC-44	0.548	0.782	0.588	0.484	0.569
HCC-78	0.179	0.222	0.244	0.192	0.235
HCC-366	0.137	0.36	0.0944	0.082	0.132
HCC-827	1.13	1.08	0.797	0.941	0.897
HOP-62	0.825	0.778	0.525	0.573	0.857
IA-LM	1.1	1.02	0.711	0.802	0.525
LC-2-ad	0.569	0.41	0.518	0.382	0.269
LCLC-97TM1	0.184	0.138	0.139	0.181	0.145
LCLC-103H	0.629	0.533	0.572	0.58	0.509

Cell Line	relative viability (first compound 0.08 µM)	relative viability (first compound 0.253 µM)	relative viability (first compound 0.8 µM)	relative viability (first compound 2.53 µM)	relative viability (first compound 8 µM)
LK-2	0.653	0.76	0.429	0.473	0.541
LOU-NH91	0.491	0.475	0.559	0.515	0.498
LU99A	0.282	0.325	0.341	0.277	0.307
LXF-289	0.786	0.857	0.781	0.753	0.66
NCI-H23	0.523	0.453	0.472	0.475	0.555
NCI-H322M	0.503	0.487	0.478	0.441	0.415
NCI-H358	0.356	0.337	0.493	0.349	0.385
NCI-H441	0.54	0.515	0.496	0.442	0.415
NCI-H460	0.425	0.361	0.454	0.441	0.365
NCI-H520	0.302	0.291	0.274	0.229	0.205
NCI-H596	0.414	0.43	0.395	0.354	0.374
NCI-H647	0.487	0.504	0.459	0.41	0.372
NCI-H650	0.768	0.989	1.03	1.07	0.82
NCI-H661	0.435	0.38	0.487		0.471
NCI-H727	0.537	0.356	0.512	0.434	0.603
NCI-H838	0.504	0.405	0.568	0.411	0.319
NCI-H1299	0.806	1.19	0.81	0.736	0.578
NCI-H1355	0.442	0.423	0.421	0.385	0.418
NCI-H1395	0.601	0.735	0.658	0.488	0.702
NCI-H1437	0.388	0.399	0.417	0.399	0.366
NCI-H1563	0.708	0.629	0.621	0.664	0.634
NCI-H1650	0.693	0.577	0.552	0.542	0.476
NCI-H1651	0.566	0.576	0.711	0.585	0.368
NCI-H1666	0.416	0.445	0.499	0.48	0.49
NCI-H1703	0.305	0.242	0.226	0.217	0.225
NCI-H1734	0.538	0.483	0.462	0.419	0.418

Cell Line	relative viability (first compound 0.08 µM)	relative viability (first compound 0.253 µM)	relative viability (first compound 0.8 µM)	relative viability (first compound 2.53 µM)	relative viability (first compound 8 µM)
NCI-H1755	0.487	0.445	0.445	0.428	0.367
NCI-H1792	0.252	0.315	0.264	0.24	0.21
NCI-H1793	0.381	0.325	0.326	0.413	0.27
NCI-H1915	0.962	1.05	0.949	1	0.93
NCI-H1944	0.349	0.374	0.357	0.32	0.33
NCI-H1975	0.338	0.289	0.325	0.258	0.298
NCI-H1993	0.675	0.664	0.856	0.817	0.696
NCI-H2009	0.986	0.946	0.983	0.808	0.778
NCI-H2023	0.249	0.225	0.255	0.184	0.185
NCI-H2085	0.543	0.461	0.518	0.501	0.46
NCI-H2087	0.905	1.04	1.27	0.896	0.955
NCI-H2126	0.521	0.461	0.487	0.477	0.463
NCI-H2170	0.329	0.309	0.295	0.278	0.326
NCI-H2228	0.431	0.498	0.556	0.346	0.349
NCI-H2347	0.467	0.688	0.849	0.387	0.624
NCI-H2405	0.432	0.465	0.473	0.329	0.377
NCI-H3122	0.723	0.751	0.748	0.715	0.607
PC-3 [JPC-3]	0.806	0.903	0.794	0.772	0.72
PC-14	1.06	0.627	0.673	0.544	0.539
RERF-LC-KJ	0.526	0.599	0.549	0.464	0.617
SK-LU-1	0.628	0.526	0.586		0.354
SK-MES-1	0.377	0.387	0.306	0.294	0.288
SW 1573	0.771	0.625	0.524	0.492	0.444
UMC-11	0.966	0.747	0.964	0.844	0.867
